# Measurements: patent US8536168B2 (Novartis AG, priority 2007, dated 2013)
# Read-outs that look alike come from different tables or passages of the source.
# Key:
# Gli-luciferase activity = test: Reporter gene assay (RGA) in TMHh12 cells, antagonism of Gli-luciferase activity in the presence of a Smo agonist; type: cell-based
# Protocol: Activity of the compounds was evaluated using a reporter gene assay (RGA) in TMHh12 cells.
# [1] = target: mouse Smoothened receptor (Mus musculus, UniProt P56726); test: Smo binding assay, displacement of radio-labeled smoothened agonist, filter binding format (mouse); conditions: displacement of small molecule agonist of Smoothened, read-out: Mouse Smo bdg., IC50
# Sequence of mouse Smoothened receptor (P56726 33-793): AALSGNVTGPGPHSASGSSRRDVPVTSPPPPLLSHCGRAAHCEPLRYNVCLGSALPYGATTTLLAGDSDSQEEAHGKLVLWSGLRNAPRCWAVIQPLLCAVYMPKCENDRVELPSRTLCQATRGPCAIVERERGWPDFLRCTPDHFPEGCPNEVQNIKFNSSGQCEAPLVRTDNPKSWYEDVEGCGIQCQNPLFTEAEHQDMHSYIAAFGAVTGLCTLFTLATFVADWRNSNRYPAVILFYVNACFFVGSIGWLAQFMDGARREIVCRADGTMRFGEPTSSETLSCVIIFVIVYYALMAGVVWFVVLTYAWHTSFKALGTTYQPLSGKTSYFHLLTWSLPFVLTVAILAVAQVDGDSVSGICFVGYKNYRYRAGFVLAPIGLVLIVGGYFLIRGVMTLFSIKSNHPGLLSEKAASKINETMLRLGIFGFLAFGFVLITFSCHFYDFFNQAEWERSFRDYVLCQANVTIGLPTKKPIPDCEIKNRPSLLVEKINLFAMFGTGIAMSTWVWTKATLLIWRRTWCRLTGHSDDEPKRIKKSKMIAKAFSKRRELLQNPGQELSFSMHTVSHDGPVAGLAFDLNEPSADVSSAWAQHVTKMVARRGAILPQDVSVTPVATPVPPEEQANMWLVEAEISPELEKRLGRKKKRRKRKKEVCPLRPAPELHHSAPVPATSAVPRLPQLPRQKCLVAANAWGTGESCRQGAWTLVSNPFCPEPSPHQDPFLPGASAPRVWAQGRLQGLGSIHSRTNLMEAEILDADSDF
# Description: A Smo binding assay was developed using radio-labeled smoothened agonist for compound competition.
# [2] = 25 nM small molecule Smo agonist, read-out: RGA (25 nM Smo agonist) IC50
# [3] = read-out: RGA (1 nM Smo agonist) IC50, 1 nM small molecule Smo agonist
IC50 (Gli-luciferase activity; [2]) [µM],IC50 (Gli-luciferase activity; [3]) [µM],IC50 [1] [µM],SMILES
1 to 10,0.1 to 1,0.1 to 1,c1ccc(Cc2nnc(N3CCN(c4ccc5ccccc5c4)CC3)c3ccccc23)cc1 [Example 31]
0.1 to 1,< 0.1,0.1 to 1,COCCN(C)C(=O)c1ccc(N2CCN(c3nnc(Cc4ccccc4)c4ccccc34)CC2)nc1 [Example 54g]
1 to 10,0.1 to 1,1 to 10,Clc1ccc(N2CCN(c3nnc(Cc4ccccc4)c4ccccc34)CC2)cc1Cl [Example 30]
0.1 to 1,< 0.1,< 0.1,CC(=O)c1cnc(N2CCN(c3nnc(Cc4ccccc4)c4ccccc34)CC2)cn1 [Example 153]
0.1 to 1,< 0.1,< 0.1,CCc1cnc(N2CCCN(c3nnc(Cc4ccccc4)c4ccccc34)CC2)nc1 [Example 45]
,,1 to 10,N#Cc1ccc(N2CCN(c3nnc(Cc4ccccc4)c4ccccc34)CC2)nc1 [Example 4]
10 to 40,1 to 10,10 to 40,c1ccc(N2CCN(c3nnc(Cc4ccncc4)c4ccccc34)CC2)nc1 [Example 23]
,1 to 10,1 to 10,c1ccc2c(N3CCN(c4ccncc4)CC3)nnc(Cc3ccncc3)c2c1 [Example 26]
10 to 40,1 to 10,,Cc1cc(Cc2nnc(N3CCN(c4ccccn4)CC3)c3ccccc23)ccn1 [Example 22]
1 to 10,0.1 to 1,1 to 10,c1ccc(Cc2nnc(N3CCN(c4cccc5ccccc45)CC3)c3ccccc23)cc1 [Example 34]
10 to 40,1 to 10,,Cc1cc(Cc2nnc(N3CCN(c4ccccc4)CC3)c3ccccc23)ccn1 [Example 11]
,0.1 to 1,< 0.1,Cc1cc(N2CCN(c3ccc(C#N)cn3)CC2)nnc1Cc1ccc(Cl)cc1 [Example 93]
0.1 to 1,0.1 to 1,< 0.1,Cc1c(Cc2ccc(F)cc2)nnc(N2CCN(c3ccc(C#N)cn3)CC2)c1C [Example 93a]
0.1 to 1,0.1 to 1,< 0.1,FC(F)(F)c1ccc(N2CCCN(c3nnc(Cc4ccccc4)c4ccccc34)CC2)nc1 [Example 3]
1 to 10,1 to 10,0.1 to 1,COC(=O)c1cnc(N2CCN(c3nnc(Cc4ccccc4)c4ccccc34)CC2)nc1 [Example 140]
10 to 40,1 to 10,,N#Cc1ccc(N2CCN(c3cnc(Cc4cccc(C#N)c4)c4ccccc34)CC2)nc1 [Example 80]
1 to 10,0.1 to 1,1 to 10,c1ccc(Cc2nnc(N3CCN(c4ccncc4)CC3)c3ccccc23)cc1 [Example 37]
1 to 10,0.1 to 1,0.1 to 1,c1ccc(Cc2nnc(N3CCN(c4cnccn4)CC3)c3ccccc23)cc1 [Example 21]
1 to 10,1 to 10,,Cc1cc(Cc2nnc(N3CCC(c4ccccc4)CC3)c3ccccc23)ccn1 [Example 14]
10 to 40,1 to 10,,NCc1ccc(N2CCN(c3nnc(Cc4ccncc4)c4ccccc34)CC2)cc1 [Example 72]
1 to 10,1 to 10,,Cc1cc(Cc2nnc(N3CCN(c4cccc5ccccc45)CC3)c3ccccc23)ccn1 [Example 35]
1 to 10,0.1 to 1,,COC(=O)CC(SCC(=O)NCc1ccc(N2CCN(c3nnc(Cc4ccccc4)c4ccccc34)CC2)nc1)C(=O)OC (stereo not shown) [Example 215]
